Patent US9535058B2, “Flow chamber analyte detection method” (Drexel University, priority 2010, dated 2017)

Test system: Bovine aortic endothelial cells (BAECs)
Experiment: Shear stress-induced NO production by endothelial cells in the two-compartment flow chamber, NO electrode measurement
Type: cell-based
Conditions: 1 mM L-NAME
Description: Bovine aortic endothelial cells (BAECs) were cultured in Dulbecco's modified Eagle's medium (Mediatech Cellgro), supplemented with 10% fetal bovine serum (Sigma), 2 mmol/l L-glutamine (Mediatech Cellgro), and penicillin-streptomycin (Mediatech Cellgro). The cells were grown to confluency and subsequently plated onto the lower surface of individual polyester Transwell® membranes (Corning Transwell Permeable Supports having a 24 mm diameter culture area with 3 μm pores). The Transwell® membranes were then placed in an incubator overnight, inverted and cultured for 1 day before conducting the experimental study. The Transwell® membranes were subsequently washed 3 three times with a solution of Dulbecco's Phosphate Buffered Saline (PBS) with calcium/magnesium (Sigma) supplemented with 70 μM L-arginine (L-arg) (Sigma) and inserted into the flow chamber.
The flow chamber included an electrode and equipment for measuring NO (TBR4100 4-channel Free Radical Analyzer and 200 μm diameter mini sensors for NO measurements ISO-NOPF). The electrodes were frequently recoated with nafion (Sigma) and re-calibrated during the experimental study to improve selectivity. The recoating process involved at least two dip/dry sessions. The electrodes were calibrated by the decomposition of a NO donor S-nitroso-N-acetyl-penicillamine (SNAP) using Cu(II). The SNAP was prepared by dissolving 5 mg EDTA and 5.0 mg+/−2.0 mg of SNAP in 250 mL HPLC grade water. The electrode was immersed in 12 mL of 0.1 M copper(II) sulfate in distilled water for about 1 to about 2 hours until the electrode stabilized. Aliquots of SNAP were sequentially added in an amount of about 10 μL, 20 μL, 40 μL, 80 μL after each signal reached a plateau. A multipoint calibration plot was created using Data-Trax software (produced by WPI). The sampling rate was 10 samples/s. The change in recorded potential was converted to corresponding molarities of NO produced by SNAP addition. The efficiency of the conversion of SNAP to NO was 0.6. Electrode sensitivity was at least about 10 pA/nM. […] The temperature probe supplied by WPI was pre-scaled using a two-point entry of known temperatures (0.03125V=1° C., 0.625V=20° C.).
The dimensions (in cm) of the flow channel were about: 4.57 W×12.19 L×0.025 H. The flow inlet and outlet had large reservoirs with sampling ports. A glass coverslip covered an opening in the bottom plate, allowing visualization of the cell layer and the electrode on an inverted microscope. As shown in FIGS. 5-6, endothelial cells were grown on the lower surface of a Transwell® porous membrane, which fit into the flow chamber flush with the upper plate of the flow chamber. […] Below the Transwell® membrane, fluid flowed through the parallel plate channel that defined the lower compartment, exposing the endothelial cells to uniform shear stress. Above the Transwell® membrane, a stagnant upper fluid compartment, having a small volume housed the NO electrode and temperature sensor. This design placed the electrode out of the fluid flow avoiding problems associated with potential flow sensitivities, flow disturbances and chamber leaking at the electrode insertion site. Furthermore, due to the small volume and zero flux condition at the other boundaries of the stagnant upper fluid compartment and the short diffusion distance through the membrane, the concentration of NO in the upper fluid compartment was nearly uniform and rapidly equilibrated with the concentration in the cell layer. The electrode was lowered into the upper compartment of the flow chamber until it rested on the surface of the Transwell® membrane at a fixed distance from the ECs of about 10 μm equal to the thickness of the membrane. This configuration allowed the NO generated by the cells to be measured abluminally from the endothelial cell layer. Due to the temperature sensitivity of the NO electrode, the flow chamber was enclosed in a water bath at 37° C. in order to prevent heat loss and temperature fluctuations. […]

COC(=O)[C@@H](N)CCCNC(=N)N[N+](=O)[O-] [L-NAME, Nω-Nitro-L-arginine methyl ester]
RNO (NO production rate) as % of RNO estimated from untreated ECs, hyperbolic model (L-arg also in perfusate, shear stress change 0.1 to 20 dyn/cm^2, hyperbolic model fit): about 57.6% | RNO (NO production rate) as % of RNO estimated from untreated ECs, linear model (L-arg also in perfusate, shear stress change 0.1 to 20 dyn/cm^2, linear model fit): about 57.3% | RNO (NO production rate) as % of RNO estimated from untreated ECs, sigmoidal model (L-arg also in perfusate, shear stress change 0.1 to 20 dyn/cm^2, sigmoidal model fit): about 58.3% | reduction of steady-state NO concentration changes in response to shear stress step changes after treatment with L-NAME (pH 7.2, step changes from 0.1 dyn/cm^2 to 1, 6, 10 or 20 dyn/cm^2, vs before treatment, FIG. 10): 40% | effect on shear stress-induced NO concentration changes (Example 1, in words) (flow-induced shear stress stimulation): partially attenuated | steady-state NO concentration changes after treatment, as % of the untreated values (average) (shear stress step changes from 0.1 dyn/cm^2, FIG. 10): 60% | effect on flow induced NO response (Example 2) (step changes from about 1 to about 5 and about 1 to about 10 dyn/cm^2): significantly reduced
